# Data taken from BindingDB's records for doi:10.1080/14756360802218334 (Cardiff University, 2009).
# Biological target: T1, Cytochrome P450 26A1 (Homo sapiens, UniProt O43174)
# T1 sequence (O43174 whole entry): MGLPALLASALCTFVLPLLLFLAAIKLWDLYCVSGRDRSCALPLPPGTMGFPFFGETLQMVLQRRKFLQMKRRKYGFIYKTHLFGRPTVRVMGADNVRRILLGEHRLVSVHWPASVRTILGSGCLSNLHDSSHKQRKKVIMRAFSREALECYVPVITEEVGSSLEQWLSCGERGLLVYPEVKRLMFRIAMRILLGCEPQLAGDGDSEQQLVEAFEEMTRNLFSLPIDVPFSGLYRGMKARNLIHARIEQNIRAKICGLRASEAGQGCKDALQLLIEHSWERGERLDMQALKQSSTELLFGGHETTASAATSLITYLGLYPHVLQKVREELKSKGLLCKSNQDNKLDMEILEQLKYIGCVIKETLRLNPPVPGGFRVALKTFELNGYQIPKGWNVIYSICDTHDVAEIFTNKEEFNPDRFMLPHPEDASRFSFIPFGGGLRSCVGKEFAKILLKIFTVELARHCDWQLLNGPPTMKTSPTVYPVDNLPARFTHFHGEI
# Experiment: Cell Assay
row,IC50,SMILES
1,12 µM,"Oc1ccc(C(c2ccc(Nc3nc4ccccc4o3)cc2)n2ccnc2)cc1 (centres undefined) [Oxazolamine derivative, 5f]"
2,35 µM,"Fc1ccc(C(c2ccc(Nc3nc4ccccc4o3)cc2)n2ccnc2)cc1 (centres undefined) [Oxazolamine derivative, 5a]"
3,> 20 µM,"COc1ccc(C(c2ccc(Nc3nc4ccccc4o3)cc2)n2ccnc2)cc1 (centres undefined) [Oxazolamine derivative, 5e]"

# More lines, now with the values behind:
row,SMILES,IC50
1,"COC(=O)c1ccc(C(c2ccc(Nc3nc4ccccc4o3)cc2)n2ccnc2)cc1 (centres undefined) [Oxazolamine derivative, 5c]",20 µM
2,"c1ccc(C(c2ccc(Nc3nc4ccccc4o3)cc2)n2cnnn2)cc1 (centres undefined) [1H-tetrazole, 13]",> 20 µM
3,CCC(CC)C(c1ccc(Nc2nc3ccccc3s2)cc1)n1cncn1 (centres undefined) [R115866],0.005 µM
4,"c1ccc(C(c2ccc(Nc3nc4ccccc4o3)cc2)n2cncn2)cc1 (centres undefined) [1H-1,2,4-triazole, 11]",18 µM
5,"c1ccc(C(c2ccc(Nc3nc4ccccc4o3)cc2)n2cnnc2)cc1 (centres undefined) [1H-1,2,4-triazole, 12]",> 20 µM
6,"O=C(O)c1ccc(C(c2ccc(Nc3nc4ccccc4o3)cc2)n2ccnc2)cc1 (centres undefined) [Oxazolamine derivative, 5d]",50 µM
